{"source": "patent US20030220267A1", "about": "“Borinic acid protease inhibitors” (priority 2001, published 2003)", "key": {"HIV-1 protease": {"target": "T1, HIV-1 protease (Human immunodeficiency virus type 1 group M subtype B, UniProt P04585)", "T1 construct": "Teach monomer is formed by 99 residues organized in β strands", "assay": "HIV-1 protease inhibition", "type": "biochemical, Human immunodeficiency virus 1", "conditions": "models such as those described by Pivazyan et al., Biochem. Pharma, 2000, 60, 927", "excerpt": "The ability of a compound of the invention to act as an inhibitor of HIV-1 protease may be determined using pharmacological models which are well known to the art, such as tnose described by A. D. Pivazyan et al., Biochem. Pharma, 2000, 60, 927."}, "chymotrypsin": {"target": "chymotrypsin (Bos taurus, UniProt P00766)", "conditions": "pH 7.5; cited from earlier work"}, "[1]": {"excerpt": "Furthermore, we attempted to separate the crude product on HPLC using a C18 reverse phase column and water/acetonitrile as the solvent. […] Using trifluoroacetic acid as part of the solvent mixture will acidify the media and might prevent decomposition."}}, "note": "Where two headings read alike, the source gives them in different places."}
{"compound": "[( 1R)-1-(Ac-Ser-Leu-Asn)-2-phenylethyl]-B-methylene-L-proline amide borinic acid [Compound I28a]", "values": [{"measurement": "inhibition of HIV-1 protease", "setting": "HIV-1 protease", "result": "inhibitors of HIV-1 protease"}]}
{"compound": "CC(=O)N[C@@H](Cc1ccccc1)B(O)O", "values": [{"measurement": "Ki", "setting": "chymotrypsin", "result": 2.1, "unit": "µM"}]}
{"compound": "[(1R)-1-(Ac-Thr-Leu-Asn)-2-phenylethyl]-B-methylene-L-proline amide borinic acid [Compound I28b]", "values": [{"measurement": "inhibition of HIV-1 protease", "setting": "HIV-1 protease", "result": "inhibitors of HIV-1 protease"}]}
{"compound": "CC(=O)N[C@@H](Cc1ccccc1)B(O)CN1CCC[C@H]1C(N)=O", "note": "[Compound I24, [(1R)-(1-Acetamido-2-phenylethyl)]-B-methylene-L-proline amide borinic acid]", "values": [{"measurement": "inhibition of HIV-1 protease", "setting": "HIV-1 protease", "result": "inhibitors of HIV-1 protease"}, {"measurement": "stability under HPLC conditions", "setting": "[1]; C18 reverse phase column, water/acetonitrile, gradient separation, crude product", "result": "unstable"}, {"measurement": "stability in buffer solution", "setting": "[1]; acidic and neutral media", "result": "stable"}, {"measurement": "stability in buffer solution", "setting": "[1]; basic conditions", "result": "quickly decomposes"}]}
